# Earlier results as cited in PubChem BioAssay AID1259409 (Chemical Carcinogenesis Research Information System (CCRIS), 2018).
# Tested on: rodent chemically induced tumor inhibition, incidence and multiplicity
# Assay: CCRIS tumor inhibitor studies
# Details: Dose [Inhibitor]: 0
compound,measurement,setting,value
COc1cc(/C=C/C(=O)CC(=O)/C=C/c2ccc(O)c(OC)c2)ccc1O,"tumour outcome (control, treated, inhibition, significance)","Carcinogen: AZOXYMETHANE, 25843-45-2, 4% COMMERCIAL GRADE CURCUMIN IN DIET FOR 35 WK BEGINNING 2 WK PRIOR TO CARCINOGEN TREATMENT (STUDY DURATION: 35 WK), Route [Inhibitor]: ORAL, Species: MOUSE, Strain/Sex: CF-1/FEMALE, Target Tissue: Type of Lesion: COLON: ADENOCARCINOMA, Dose [Carcinogen]: 10 MG/KG BW IN 100 µL NORMAL SALINE 1/WK FOR 6 WK, Promoter: NONE USED","40%, 15%, 63%, not significant"
same,"tumour outcome (control, treated, inhibition, significance)","Carcinogen: AZOXYMETHANE, 25843-45-2, 4% COMMERCIAL GRADE CURCUMIN IN DIET FOR 35 WK BEGINNING 2 WK PRIOR TO CARCINOGEN TREATMENT (STUDY DURATION: 35 WK), Route [Inhibitor]: ORAL, Species: MOUSE, Strain/Sex: CF-1/FEMALE, Target Tissue: Type of Lesion: COLON: ADENOMA, Dose [Carcinogen]: 10 MG/KG BW IN 100 µL NORMAL SALINE 1/WK FOR 6 WK, Promoter: NONE USED","93%, 56%, 40%, not significant"
same,"tumour outcome (control, treated, inhibition, significance)","Carcinogen: AZOXYMETHANE, 25843-45-2, 200O PPM IN DIET FOR 56 WK BEGINNING 2 WK PRIOR TO CARCINOGEN TREATMENT (STUDY DURATION: 56 WK), Route [Inhibitor]: ORAL, Species: RAT, Strain/Sex: F344/MALE, Target Tissue: Type of Lesion: COLON: ADENOCARCINOMA, Dose [Carcinogen]: 15 MG/KG BW 1/WK FOR 2 WK, Promoter: NONE USED","81%, 47%, 42%, p<0.004"
same,"tumour outcome (control, treated, inhibition, significance)","Carcinogen: BENZO[A]PYRENE, 50-32-8, 0.5% COMMERCIAL GRADE CURCUMIN IN DIET FOR 7 WK BEGINNING 2 WK PRIOR TO CARCINOGEN TREATMENT (STUDY DURATION: 30 WK), Route [Inhibitor]: ORAL, Species: MOUSE, Strain/Sex: STRAIN-A/FEMALE, Target Tissue: Type of Lesion: FORESTOMACH: PAPILLOMA, Dose [Carcinogen]: 1.5 MG IN 100 µL CORN OIL 1/WK FOR 4 WK, Promoter: NONE USED","97%, 87%, 10%, not significant"
same,"tumour outcome (control, treated, inhibition, significance)","Carcinogen: BENZO[A]PYRENE, 50-32-8, 0.5% COMMERCIAL GRADE CURCUMIN IN DIET FOR 7 WK BEGINNING 2 WK PRIOR TO CARCINOGEN TREATMENT (STUDY DURATION: 30 WK), Route [Inhibitor]: ORAL, Species: MOUSE, Strain/Sex: STRAIN-A/FEMALE, Target Tissue: Type of Lesion: FORESTOMACH: SQUAMOUS CELL CARCINOMA, Dose [Carcinogen]: 1.5 MG IN 100 µL CORN OIL 1/WK FOR 4 WK, Promoter: NONE USED","41%, 23%, 44%, not significant"
same,"tumour outcome (control, treated, inhibition, significance)","Carcinogen: BENZO[A]PYRENE, 50-32-8, 0.5% COMMERCIAL GRADE CURCUMIN IN DIET FOR 23 WK BEGINNING 1 WK POST CARCINOGEN TREATMENT (STUDY DURATION: 30 WK), Route [Inhibitor]: ORAL, Species: MOUSE, Strain/Sex: STRAIN-A/FEMALE, Target Tissue: Type of Lesion: FORESTOMACH: PAPILLOMA, Dose [Carcinogen]: 1.5 MG IN 100 µL CORN OIL 1/WK FOR 4 WK, Promoter: NONE USED","97%, 89%, 8%, not significant"
same,"tumour outcome (control, treated, inhibition, significance)","Carcinogen: BENZO[A]PYRENE, 50-32-8, 0.5% COMMERCIAL GRADE CURCUMIN IN DIET FOR 23 WK BEGINNING 1 WK POST CARCINOGEN TREATMENT (STUDY DURATION: 30 WK), Route [Inhibitor]: ORAL, Species: MOUSE, Strain/Sex: STRAIN-A/FEMALE, Target Tissue: Type of Lesion: FORESTOMACH: SQUAMOUS CELL CARCINOMA, Dose [Carcinogen]: 1.5 MG IN 100 µL CORN OIL 1/WK FOR 4 WK, Promoter: NONE USED","41%, 30%, 27%, not significant"
same,"tumour outcome (control, treated, inhibition, significance)","Carcinogen: BENZO[A]PYRENE, 50-32-8, 2% COMMERCIAL GRADE CURCUMIN IN DIET FOR 7 WK BEGINNING 2 WK PRIOR TO CARCINOGEN TREATMENT (STUDY DURATION: 30 WK), Route [Inhibitor]: ORAL, Species: MOUSE, Strain/Sex: STRAIN-A/FEMALE, Target Tissue: Type of Lesion: FORESTOMACH: PAPILLOMA, Dose [Carcinogen]: 1.5 MG IN 100 µL CORN OIL 1/WK FOR 4 WK, Promoter: NONE USED","97%, 83%, 14%, not significant"
same,"tumour outcome (control, treated, inhibition, significance)","Carcinogen: BENZO[A]PYRENE, 50-32-8, 2% COMMERCIAL GRADE CURCUMIN IN DIET FOR 7 WK BEGINNING 2 WK PRIOR TO CARCINOGEN TREATMENT (STUDY DURATION: 30 WK), Route [Inhibitor]: ORAL, Species: MOUSE, Strain/Sex: STRAIN-A/FEMALE, Target Tissue: Type of Lesion: FORESTOMACH: SQUAMOUS CELL CARCINOMA, Dose [Carcinogen]: 1.5 MG IN 100 µL CORN OIL 1/WK FOR 4 WK, Promoter: NONE USED","41%, 10%, 76%, not significant"
same,"tumour outcome (control, treated, inhibition, significance)","Carcinogen: BENZO[A]PYRENE, 50-32-8, 2% COMMERCIAL GRADE CURCUMIN IN DIET FOR 23 WK BEGINNING 1 WK POST CARCINOGEN TREATMENT (STUDY DURATION: 30 WK), Route [Inhibitor]: ORAL, Species: MOUSE, Strain/Sex: STRAIN-A/FEMALE, Target Tissue: Type of Lesion: FORESTOMACH: PAPILLOMA, Dose [Carcinogen]: 1.5 MG IN 100 µL CORN OIL 1/WK FOR 4 WK, Promoter: NONE USED","97%, 79%, 19%, not significant"
same,"tumour outcome (control, treated, inhibition, significance)","Carcinogen: BENZO[A]PYRENE, 50-32-8, 2% COMMERCIAL GRADE CURCUMIN IN DIET FOR 23 WK BEGINNING 1 WK POST CARCINOGEN TREATMENT (STUDY DURATION: 30 WK), Route [Inhibitor]: ORAL, Species: MOUSE, Strain/Sex: STRAIN-A/FEMALE, Target Tissue: Type of Lesion: FORESTOMACH: SQUAMOUS CELL CARCINOMA, Dose [Carcinogen]: 1.5 MG IN 100 µL CORN OIL 1/WK FOR 4 WK, Promoter: NONE USED","41%, 14%, 66%, not significant"
same,"tumour outcome (control, treated, inhibition, significance)","Carcinogen: BENZO[A]PYRENE, 50-32-8, 3 UMOL IN ACETONE 1/WK FOR 10 WK APPLIED 5 MIN PRIOR TO EACH CARCINOGEN DOSE (STUDY DURATION: 32 WK), Route [Inhibitor]: DERMAL, Species: MOUSE, Strain/Sex: CD-1/FEMALE, Target Tissue: Type of Lesion: SKIN: TUMORS, Dose [Carcinogen]: 20 NMOL 1/WK FOR 10 WK, Promoter: 12-O-TETRADECANOYLPHORBOL-13-ACETATE, 16561-29-8","100%, 75%, 25%, not calculated"
same,"tumour outcome (control, treated, inhibition, significance)","Carcinogen: BENZO[A]PYRENE, 50-32-8, 5% IN DIET FOR 8 WK BEGINNING 2 WK PRIOR TO CARCINOGEN TREATMENT (STUDY DURATION: 20 WK), Route [Inhibitor]: ORAL, Species: MOUSE, Strain/Sex: SWISS/FEMALE, Target Tissue: Type of Lesion: FORESTOMACH: TUMOR, Dose [Carcinogen]: 1 MG IN 0.1 ML PEANUT OIL 2/WK FOR 4 WK, Promoter: NONE USED","20/20 (100%), 12/20 (60%), 40%, p<0.001"
same,"tumour outcome (control, treated, inhibition, significance)","Carcinogen: BENZO[A]PYRENE, 50-32-8, 10 UMOL IN ACETONE 1/WK FOR 10 WK APPLIED 5 MIN PRIOR TO EACH CARCINOGEN DOSE (STUDY DURATION: 32 WK), Route [Inhibitor]: DERMAL, Species: MOUSE, Strain/Sex: CD-1/FEMALE, Target Tissue: Type of Lesion: SKIN: TUMORS, Dose [Carcinogen]: 20 NMOL 1/WK FOR 10 WK, Promoter: 12-O-TETRADECANOYLPHORBOL-13-ACETATE, 16561-29-8","100%, 82%, 18%, not calculated"
